How the values were obtained:
[1] = Caco-2 permeability assay (CacoReady kit); type: in vitro ADME; conditions: human
Summary of the method: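 Caco-2 monolayer barrier, commercial ready-to-use kit, manufacturer protocol. Read-out: Papp.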

[2] = Log D by shake flask method (octanol / PBS pH 7.4, HPLC); type: physicochemical; conditions: octanol / PBS pH 7.4, shake flask; read-out: logD
Summary of the method: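 Log D is derived by HPLC measurement of how the compound distributes between octanol and pH 7.4 phosphate-buffered saline in a shake flask.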

[3] = target: T1, recombinant human transglutaminase 2 (Homo sapiens, UniProt P21980); experiment: Transglutaminase assay: incorporation of dansylcadaverine into dimethylcasein (DCC-assay); type: biochemical; conditions: for IC50: recombinant human TG2 10 nM, dansylcadaverine/dimethylcasein, read-out: IC50 TG2
T1 sequence (P21980 1-687): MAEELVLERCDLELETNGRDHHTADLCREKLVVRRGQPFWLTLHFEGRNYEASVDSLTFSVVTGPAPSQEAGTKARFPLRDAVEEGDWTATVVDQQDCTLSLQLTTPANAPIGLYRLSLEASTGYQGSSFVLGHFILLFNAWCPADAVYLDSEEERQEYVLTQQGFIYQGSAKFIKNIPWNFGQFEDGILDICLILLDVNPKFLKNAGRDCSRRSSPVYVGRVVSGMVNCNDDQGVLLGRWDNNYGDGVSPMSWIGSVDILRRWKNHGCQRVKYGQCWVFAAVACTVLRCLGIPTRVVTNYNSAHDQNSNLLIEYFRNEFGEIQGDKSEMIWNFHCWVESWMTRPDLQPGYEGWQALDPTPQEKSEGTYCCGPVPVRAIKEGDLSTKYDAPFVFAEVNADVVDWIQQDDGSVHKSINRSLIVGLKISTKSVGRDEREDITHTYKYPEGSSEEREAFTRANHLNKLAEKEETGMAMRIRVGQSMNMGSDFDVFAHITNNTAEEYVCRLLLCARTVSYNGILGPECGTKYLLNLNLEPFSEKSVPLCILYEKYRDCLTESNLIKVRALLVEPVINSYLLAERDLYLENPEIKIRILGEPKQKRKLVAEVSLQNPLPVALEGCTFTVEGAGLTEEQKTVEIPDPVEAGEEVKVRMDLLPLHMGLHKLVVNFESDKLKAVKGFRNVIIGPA
Summary of the method: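 Recombinant human TG2 (10 nM final) incorporates dansylcadaverine (16.7 μM) into N,N-dimethylcasein (4 μM) in Tris-HCl buffer, pH 8.0, with 10 mM CaCl2 and 10 mM glutathione. Fluorescence (λex 330, λem 500 nm) followed 30 min. The slope between 20–30 min gives activity versus DMSO control, and IC50 comes from the concentration–activity plot.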

Structure (SMILES)	Papp [1]	logD [2]	IC50 [3]	fold more potent compared to Ref. 4 ([3]; ratio of IC50, compare table 1)
CCNC(=O)C(=O)CC[C@H](NC(=O)c1cc2cccnc2nc1C)C(=O)Nc1cccn(CC(=O)NC23CC(C2)C3)c1=O [Compound I-103, (S)-N1-(1-(2-(bicyclo[1.1.1]pentan-1-ylamino)-2-oxoethyl)-2-oxo-1,2-dihydropyridin-3-yl)-N6-ethyl-2-(2-methyl-1,8-naphthyridine-3-carboxamido)-5-oxohexanediamide]	< 1 ×10⁻⁶ cm/s	< 1	600 to 3500 nM	
CCNC(=O)C(=O)CC[C@H](NC(=O)c1nc(C2(C)CC2)no1)C(=O)Nc1cccn(CC(=O)NC2C3CC4CC2CC(C(N)=O)(C4)C3)c1=O (stereo partly drawn) [Compound I-115, (S)-N1-ethyl-N6-(1-(2-(4-aminoadamantane-1-carboxamide)-2-oxoethyl)-2-oxo-1,2-dihydropyridin-3-yl)-5-(3-(1-methylcyclopropyl)-1,2,4-oxadiazole-5-carboxamido)-2-oxohexanediamide]	< 1 ×10⁻⁶ cm/s	< 1	600 to 3500 nM	
CCNC(=O)C(=O)CC[C@H](NC(=O)c1cnc(NC(C)=O)s1)C(=O)Nc1cccn(CC(=O)NC23CC(C2)C3)c1=O [Compound I-110, (S)-2-(2-acetamidothiazole-5-carboxamido)-N1-(1-(2-(bicyclo[1.1.1]pentan-1-ylamino)-2-oxoethyl)-2-oxo-1,2-dihydropyridin-3-yl)-N6-ethyl-5-oxohexanediamide]	< 1 ×10⁻⁶ cm/s	< 1	600 to 3500 nM	
CCNC(=O)C(=O)CC[C@H](NC(=O)[C@H]1CCNC1)C(=O)Nc1cccn(CC(=O)NC2C3CC4CC2CC(F)(C4)C3)c1=O (stereo partly drawn) [Compound I-59, (S)-N1-ethyl-N6-(1-(2-(5-fluoroadamantane-2-amino)-2-oxoethyl)-2-oxo-1,2-dihydropyridin-3-yl)-2-oxo-5-((S)-pyrrolidine-3-carboxamido)hexanediamide]	< 1 ×10⁻⁶ cm/s	< 1	150 to 600 nM	
CCNC(=O)C(=O)CC[C@H](NC(=O)c1cncn1C)C(=O)Nc1cccn(CC(=O)NC[C@@H]2CC[C@@H]3C[C@H]2C3(C)C)c1=O [Compound I-14, (S)-N1-(1-(2-(((1R,2R,5R)-6,6-dimethylbicyclo[3.1.1]heptan-2-yl)methylamino)-2-oxoethyl)-2-oxo-1,2-dihydropyridin-3-yl)-N6-ethyl-2-(1-methyl-1H-imidazole-5-carboxamido)-5-oxohexanediamide]	< 1 ×10⁻⁶ cm/s	1 to 3	150 to 600 nM	
CCC(CC)CNC(=O)Cn1cccc(NC(=O)[C@H](CCC(=O)C(=O)NC)NC(=O)c2cncn2C)c1=O [Ref. 1, reference compound]	< 1 ×10⁻⁶ cm/s	< 1	600 to 3500 nM	about 15 fold
CCNC(=O)C(=O)CC[C@H](NC(=O)[C@@H]1CCCNC1)C(=O)Nc1cccn(CC(=O)NC2C3CC4CC2CC(Br)(C4)C3)c1=O (stereo partly drawn) [Compound I-61, (S)-N1-ethyl-N6-(1-(2-(5-bromoadamantane-2-amino)-2-oxoethyl)-2-oxo-1,2-dihydropyridin-3-yl)-2-oxo-5-((R)-piperidine-3-carboxamido)hexanediamide]	< 1 ×10⁻⁶ cm/s	1 to 3	150 to 600 nM	
CCNC(=O)C(=O)CC[C@H](NC(=O)c1snnc1C=O)C(=O)Nc1cccn(CC(=O)NC2C3CC4CC(C3)CC2C4)c1=O (stereo partly drawn) [Compound I-120, (S)-N1-ethyl-5-(4-formyl-1,2,3-thiadiazole-5-carboxamido)-N6-(1-(2-(2-adamantylamino)-2-oxoethyl)-2-oxo-1,2-dihydropyridin-3-yl)-2-oxohexanediamide]	< 1 ×10⁻⁶ cm/s	< 1	150 to 600 nM	

Continued, values first:

Papp [1]	logD [2]	IC50 [3]	fold more potent compared to Ref. 4 ([3]; ratio of IC50, compare table 1)	Structure (SMILES)
< 1 ×10⁻⁶ cm/s	< 1	< 150 nM		CCNC(=O)C(=O)CC[C@H](NC(=O)c1cccnc1)C(=O)Nc1cccn(CC(=O)NC23CC4CC(CC(C4)C2)C3)c1=O [Compound I-121, (S)-N1-ethyl-N6-(1-(2-(3,5-dimethyladamantane-1-amino)-2-oxoethyl)-2-oxo-1,2-dihydropyridin-3-yl)-5-(nicotinamido)-2-oxohexanediamide]
< 1 ×10⁻⁶ cm/s	< 1	150 to 600 nM		CCNC(=O)C(=O)CC[C@H](NC(=O)c1nncs1)C(=O)Nc1cccn(CC(=O)NC23CC(C2)C3)c1=O [Compound I-119, (S)-N1-(1-(2-(bicyclo[1.1.1]pentan-1-ylamino)-2-oxoethyl)-2-oxo-1,2-dihydropyridin-3-yl)-N6-ethyl-5-oxo-2-(1,3,4-thiadiazole-2-carboxamido)hexanediamide]
< 1 ×10⁻⁶ cm/s	1 to 3	< 150 nM		CCNC(=O)C(=O)CC[C@H](NC(=O)c1cncn1C)C(=O)Nc1cccn(CC(=O)NC23CC4(C)CC(C)(CC(C)(C4)C2)C3)c1=O [Compound I-28, (S)-N1-ethyl-N6-(1-(2-(3,5,7-trimethyl-1-adamantylamino)-2-oxoethyl)-2-oxo-1,2-dihydropyridin-3-yl)-5-(1-methyl-1H-imidazole-5-carboxamido)-2-oxohexanediamide]
< 1 ×10⁻⁶ cm/s	< 1	< 150 nM		CCNC(=O)C(=O)CC[C@H](NC(=O)c1coc(C(C)=O)n1)C(=O)Nc1cccn(CC(=O)NC23CC(C2)C3)c1=O [Compound I-89, (S)-2-(2-acetyloxazole-4-carboxamido)-N1-(1-(2-(bicyclo[1.1.1]pentan-1-ylamino)-2-oxoethyl)-2-oxo-1,2-dihydropyridin-3-yl)-N6-ethyl-5-oxohexanediamide]
< 1 ×10⁻⁶ cm/s	3 to 5	150 to 600 nM		CCNC(=O)C(=O)CC[C@H](NC(=O)c1cncc(C(=O)O)c1)C(=O)Nc1cccn(CC(=O)NC(C)C23CC4CC(CC(C4)C2)C3)c1=O (stereo partly shown) [Compound I-66]
1 to 10 ×10⁻⁶ cm/s	3 to 5	150 to 600 nM		CCNC(=O)C(=O)CC[C@H](NC(=O)c1csc2ccccc12)C(=O)Nc1cccn(CC(=O)NC23CCCC4CC(CCC42)C3)c1=O (stereo partly drawn) [Compound I-78, (S)-2-(benzo[b]thiophene-3-carboxamido)-N6-ethyl-N1-(1-(2-(4-homoisotwistane-3-amino)-2-oxoethyl)-2-oxo-1,2-dihydropyridin-3-yl)-5-oxohexanediamide]
1 to 10 ×10⁻⁶ cm/s	3 to 5	< 150 nM		CCNC(=O)C(=O)CC[C@H](NC(=O)c1cc2ccccc2s1)C(=O)Nc1cccn(CC(=O)NC2C3CC4CC(C3)CC2C4)c1=O (stereo partly drawn) [Compound I-34, (S)-2-(benzo[b]thiophene-2-carboxamido)-N6-ethyl-N1-(1-(2-(2-adamantylamino)-2-oxoethyl)-2-oxo-1,2-dihydropyridin-3-yl)-5-oxohexanediamide]
< 1 ×10⁻⁶ cm/s	1 to 3	150 to 600 nM		CCNC(=O)C(=O)CC[C@H](NC(=O)c1cncn1C)C(=O)Nc1cccn(CC(=O)NC23CC4CC(CC(C)(C4)C2)C3)c1=O [Compound I-25, (S)-N1-ethyl-N6-(1-(2-(3-methyladamantane-1-amino)-2-oxoethyl)-2-oxo-1,2-dihydropyridin-3-yl)-5-(1-methyl-1H-imidazole-5-carboxamido)-2-oxohexanediamide]
1 to 10 ×10⁻⁶ cm/s	< 1	< 150 nM		CCNC(=O)C(=O)CC[C@H](NC(=O)c1cnnn1C)C(=O)Nc1cccn(CC(=O)NC2C3CC4CC(C3)CC2C4)c1=O (stereo partly drawn) [Compound I-56, (S)-N1-ethyl-N6-(1-(2-(2-adamantylamino)-2-oxoethyl)-2-oxo-1,2-dihydropyridin-3-yl)-5-(1-methyl-1H-1,2,3-triazole-5-carboxamido)-2-oxohexanediamide]
1 to 10 ×10⁻⁶ cm/s	1 to 3	< 150 nM		CCNC(=O)C(=O)CC[C@H](NC(=O)c1sc(C(F)(F)F)nc1C)C(=O)Nc1cccn(CC(=O)NC2C3CC4CC(C3)CC2C4)c1=O (stereo partly drawn) [Compound I-40, (S)-N1-ethyl-N6-(1-(2-(2-adamantylamino)-2-oxoethyl)-2-oxo-1,2-dihydropyridin-3-yl)-5-(4-methyl-2-(trifluoromethyl)thiazole-5-carboxamido)-2-oxohexanediamide]
1 to 10 ×10⁻⁶ cm/s	3 to 5	< 150 nM		CCNC(=O)C(=O)CC[C@H](NC(=O)c1sc(Br)cc1Br)C(=O)Nc1cccn(CC(=O)NC2C3CC4CC(C3)CC2C4)c1=O (stereo partly drawn) [Compound I-44, (S)-2-(3,5-dibromothiophene-2-carboxamido)-N6-ethyl-N1-(1-(2-(2-adamantylamino)-2-oxoethyl)-2-oxo-1,2-dihydropyridin-3-yl)-5-oxohexanediamide]
